{"source": "patent US10028942B2", "about": "(priority 2013, dated 2018)"}
{"target": "T1, DLK (Homo sapiens, UniProt Q12852)", "T1 sequence (Q12852 1-520)": "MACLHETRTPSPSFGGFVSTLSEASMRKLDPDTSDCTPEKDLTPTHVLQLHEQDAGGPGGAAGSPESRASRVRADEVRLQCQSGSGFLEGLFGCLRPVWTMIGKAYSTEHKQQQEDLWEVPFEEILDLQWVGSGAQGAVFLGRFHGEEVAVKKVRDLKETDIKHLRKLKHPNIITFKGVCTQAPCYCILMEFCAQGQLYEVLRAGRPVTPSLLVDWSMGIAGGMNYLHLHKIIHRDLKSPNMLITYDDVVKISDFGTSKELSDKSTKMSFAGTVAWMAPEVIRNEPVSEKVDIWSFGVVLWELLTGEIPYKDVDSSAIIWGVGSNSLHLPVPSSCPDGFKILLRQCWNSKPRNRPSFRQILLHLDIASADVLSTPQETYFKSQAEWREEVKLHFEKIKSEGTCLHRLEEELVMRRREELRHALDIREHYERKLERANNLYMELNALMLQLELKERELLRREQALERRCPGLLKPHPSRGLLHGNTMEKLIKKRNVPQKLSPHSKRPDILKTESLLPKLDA", "conditions": "read-out: DLK (Ki) μM; TR-FRET; 5 nM GST-tagged DLK (catalytic domain aa 1-520), 40 nM HIS-MKK4 K131M substrate, 30 μM ATP, 60 minutes", "units": {"Ki": "µM"}}
{"smiles": "CN1CCC(c2cc(-c3cnc4[nH]cc(C(F)(F)F)c4c3)nn2C2CC(F)(F)C2)CC1=O", "note": "(stereo not shown) [Compound 45, 4-(1-(3,3-difluorocyclobutyl)-3-(3-(tri-fluoromethyl)-1H-pyrrolo[2,3-b]pyri-din-5-yl)-1H-pyrazol-5-yl)-1-meth-ylpiperidin-2-one]", "Ki": 0.14}
{"smiles": "CC(C)n1nc(-c2cnc(N)c(C(F)(F)F)c2)cc1C(C)(C)C#N", "note": "[Compound 4, 2-(3-(6-amino-5-(trifluoromethyl)pyridin-3-yl)-1-isopropyl-1H-pyrazol-5-yl)-2-methylpropanenitrile]", "Ki": 0.78}
{"smiles": "CC(C)Oc1cc(-c2cc(C3CCN(C4COC4)CC3)n(C3CCCC3)n2)cnc1N", "note": "[Compound 90, 5-(1-cyclopentyl-5-(1-(oxetan-3-yl)piperidin-4-yl)-1H-pyrazol-3-yl)-3-iso-propoxypyridin-2-amine]", "Ki": 0.12}
{"smiles": "Nc1ncc(-c2cc(C3CCOC3)n(C3CCC(F)(F)C3)n2)cc1Cl", "note": "(stereo not shown) [Compound 23, 3-chloro-5-(1-(3,3-difluorocyclopent-yl)-5-(tetrahydrofuran-3-yl)-1H-pyra-zol-3-yl)pyridin-2-amine]", "Ki": 0.35}
{"smiles": "CC(C)n1nc(-c2cnc3[nH]cc(C#N)c3c2)cc1C1CCN(C2COC2)CC1", "note": "[Compound 77, 5-(1-isopropyl-5-(1-(oxetan-3-yl)pipe-ridin-4-yl)-1H-pyrazol-3-yl)-1H-pyrro-lo[2,3-b]pyridine-3-carbonitrile]", "Ki": 0.12}
{"smiles": "CS(=O)(=O)c1cc(-c2cc([C@H]3[C@@H]4CN(C5COC5)C[C@@H]43)n(C3CCCC3)n2)cnc1N", "note": "[Compound 155, 5-(1-cyclopentyl-5-((1R,5S,6r)-3-(oxe-tan-3-yl)-3-azabicyclo[3.1.0]hexan-6-yl)-1H-pyrazol-3-yl)-3-(methyl-sulfonyl)pyridin-2-amine]", "Ki": 0.3}
{"smiles": "COCCN1C[C@@H]2[C@H](C1)[C@H]2c1cc(-c2cnc(N)c(OC(F)(F)F)c2)nn1C(C)C", "note": "[Compound 125, 5-(1-isopropyl-5-((1R,5S,6r)-3-(2-meth-oxyethyl)-3-azabicyclo[3.1.0]hex-an-6-yl)-1H-pyrazol-3-yl)-3-(trifluoro-methoxy)pyridin-2-amine]", "Ki": 0.0058}
{"smiles": "CC(C)n1nc(-c2cnc(N)c(C(F)(F)F)c2)cc1C1CCN(C2COC2)C1", "note": "(stereo not shown) [Compound 67, 5-(1-isopropyl-5-(1-(oxetan-3-yl)pyr-rolidin-3-yl)-1H-pyrazol-3-yl)-3-(tri-fluoromethyl)pyridin-2-amine]", "Ki": 0.03}
{"smiles": "Nc1ncc(-c2cc([C@H]3[C@@H]4CN(C5COC5)C[C@@H]43)n(C3CCC3)n2)cc1C1CC1", "note": "[Compound 153, 5-(1-cyclobutyl-5-((1R,5S,6r)-3-(oxe-tan-3-yl)-3-azabicyclo[3.1.0]hexan-6-yl)-1H-pyrazol-3-yl)-3-cyclopropyl-pyridin-2-amine]", "Ki": 0.011}
{"smiles": "COCCN1C[C@@H]2[C@H](C1)[C@H]2c1cc(-c2cnc(N)c(OC(F)F)c2)nn1C(C)C", "note": "[Compound 119, 3-(difluoromethoxy)-5-(1-isopropyl-5-((1R,5S,6r)-3-(2-methoxyethyl)-3-azabicyclo[3.1.0]hexan-6-yl)-1H-py-razol-3-yl)pyridin-2-amine]", "Ki": 0.0055}
{"smiles": "Cc1c[nH]c2ncc(-c3cc(C4CCN(C5COC5)C4)n(C)n3)cc12", "note": "(stereo not shown) [Compound 63, 3-methyl-5-(1-methyl-5-(1-(oxetan-3-yl)pyrrolidin-3-yl)-1H-pyrazol-3-yl)-1H-pyrrolo[2,3-b]pyridine]", "Ki": 0.034}
{"smiles": "Nc1ncc(-c2cc([C@H]3[C@@H]4CN(C5COC5)C[C@@H]43)n(CC3CC3)n2)cc1C(F)F", "note": "[Compound 169, 5-(1-(cyclopropylmethyl)-5-((1R,5S,6r)-3-(oxetan-3-yl)-3-azabicyclo[3.1.0]hexan-6-yl)-1H-pyrazol-3-yl)-3-(di-fluoromethyl)pyridin-2-amine]", "Ki": 0.041}
{"smiles": "Nc1ncc(-c2cc(C3CCN(C4COC4)CC3)n(C3CCCC3)n2)cc1C(F)(F)F", "note": "[Compound 81, 5-(1-cyclopentyl-5-(1-(oxetan-3-yl)piperidin-4-yl)-1H-pyrazol-3-yl)-3-(trifluoromethyl)pyridin-2-amine]", "Ki": 0.084}
